In the experiment the test system is BDF1 mice, P388 leukemia ip, median survival T/C. Briefly: NCI In Vivo Anticancer Drug Screen. Data for tumor model P388 Leukemia (intraperitoneal) in B6D2F1 (BDF1) mice. The note with it: endpoint: median survival time, higher = longer survival. The method in brief: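 Survival ratio, drug arm over vehicle arm, in mice with a transplanted tumour.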
[1] abbreviates: dose: 6.25 mg/kg/injection, schedule: Q01DX009 (ip), vehicle: saline.
The mark [2] stands for this setting: dose: 12.5 mg/kg/injection, schedule: Q01DX009 (ip), vehicle: saline.
Setting [3] is: dose: 12.5 mg/kg/injection, schedule: Q04DX003 (ip), vehicle: saline with Tween-80.
The mark [4] stands for this setting: dose: 25.0 mg/kg/injection, schedule: Q04DX003 (ip), vehicle: saline with Tween-80.
[5] abbreviates: dose: 100.0 mg/kg/injection, schedule: Q01DX009 (ip), vehicle: saline with Tween-80.
The mark [6] stands for this setting: dose: 200.0 mg/kg/injection, schedule: Q01DX009 (ip), vehicle: saline with Tween-80.

Results on eleven molecules are retold here after PubChem BioAssay AID328 (DTP/NCI, 2004).

“And” between values parts separate entries of the source, which are not always exact repeats. Equal entries are not always repeated. Toxic doses and inconclusive results are not listed.

For the molecule `c1ccc(Cn2ccnc2C2OCCO2)cc1`, the T/C is, setting by setting: (dose: 6.25 mg/kg/injection, schedule: Q01DX009 (ip), vehicle: water) 95 % of control; (dose: 12.5 mg/kg/injection, schedule: Q01DX009 (ip), vehicle: water) 88 % of control; (dose: 12.5 mg/kg/injection, schedule: Q04DX003 (ip), vehicle: water) 104 % of control; (dose: 25.0 mg/kg/injection, schedule: Q04DX003 (ip), vehicle: water) 101 % of control; (dose: 50.0 mg/kg/injection, schedule: Q01DX009 (ip), vehicle: water) 112 % of control; (dose: 50.0 mg/kg/injection, schedule: Q04DX003 (ip), vehicle: water) 107 % of control. The T/C reads like this: (dose: 100.0 mg/kg/injection, schedule: Q01DX009 (ip), vehicle: water) 93 % of control; (dose: 100.0 mg/kg/injection, schedule: Q04DX003 (ip), vehicle: water) 92 % of control; (dose: 200.0 mg/kg/injection, schedule: Q01DX009 (ip), vehicle: water) 87 % of control.
As for `O=c1c2ccccc2nnn1Cc1ccco1`, the T/C by setting is: (dose: 50.0 mg/kg/injection, schedule: Q01DX005 (ip), vehicle: saline with Tween-80) 99 % of control; (dose: 200.0 mg/kg/injection, schedule: Q01DX005 (ip), vehicle: saline with Tween-80) 89 % of control.
Take `COC(=O)c1ccc(Cn2ccc(=O)n(Cc3ccc(C(=O)OC)cc3)c2=O)cc1`: the T/C is, setting by setting: (dose: 100.0 mg/kg/injection, schedule: Q04DX003 (ip), vehicle: saline with Tween-80) 100 % of control; (dose: 200.0 mg/kg/injection, schedule: Q04DX003 (ip), vehicle: saline with Tween-80) 100 % of control; (dose: 400.0 mg/kg/injection, schedule: Q04DX003 (ip), vehicle: saline with Tween-80) 100 % of control.
With `CN(C)CCCN1c2ccccc2Sc2ccc(Cl)cc21`, the T/C reads like this: under setting [1], 109 % of control; under setting [2], 109 % of control; under setting [3], 104 % of control; (dose: 12.5 mg/kg/injection, schedule: Q04DX003 (ip), vehicle: saline) 106 % of control; under setting [4], 108 % of control; (dose: 25.0 mg/kg/injection, schedule: Q04DX003 (ip), vehicle: saline) 89 % of control. Besides, where the note is “dose: 50.0 mg/kg/injection, schedule: Q04DX003 (ip), vehicle: saline”, the T/C is 112 % of control.
As to `OCCC[P+](c1ccccc1)(c1ccccc1)c1ccccc1`, the T/C by setting is: (dose: 50.0 mg/kg/injection, schedule: Q04DX003 (ip), vehicle: Klucel (hydroxypropylcellulose) (HPC)) 113 % of control; (dose: 100.0 mg/kg/injection, schedule: Q04DX003 (ip), vehicle: Klucel (hydroxypropylcellulose) (HPC)) 109 % of control.
For the molecule `COc1ccc(CC2C(=O)NC(C)C(=O)N(C)C3C(=O)N(C)C(Cc4ccc(O)c(c4)Oc4ccc(cc4)C3O)C(=O)NC(C)C(=O)NC(C)C(=O)N2C)cc1` (configuration not stated) (tested in a mixture with another compound), the T/C (dose: 0.5 mg/kg/injection, schedule: Q01DX009 (ip), vehicle: alcohol) was 179 % of control; the T/C (dose: 0.5 mg/kg/injection, schedule: Q01DX009 (ip), vehicle: carboxymethylcellulose (CMC)) is 207 % of control; the T/C (dose: 1.0 mg/kg/injection, schedule: Q01DX009 (ip), vehicle: alcohol) is 158 % of control; the T/C (dose: 1.0 mg/kg/injection, schedule: Q01DX009 (ip), vehicle: carboxymethylcellulose (CMC)) is 182 % of control; the T/C (dose: 2.0 mg/kg/injection, schedule: Q01DX009 (ip), vehicle: alcohol) is 208 % of control; the T/C (dose: 2.0 mg/kg/injection, schedule: Q01DX009 (ip), vehicle: carboxymethylcellulose (CMC)) is 207 % of control.
Consider `O=C(NC1CCCCC1)N(C(=O)C(F)(F)F)C1CCCCC1`, for which the T/C is 97 % of control (dose: 50.0 mg/kg/injection, schedule: Q01DX009 (ip), vehicle: saline with Tween-80); 93 % of control under setting [5]; 93 % of control under setting [6].
As to `CCCn1c2nc(=O)n(C)c(=O)c-2[n+]([O-])c2ccccc21`, the T/C (dose: 6.25 mg/kg/injection, schedule: Q01DX001 (ip), vehicle: saline with Tween-80) was 101 % of control and the T/C (dose: 12.5 mg/kg/injection, schedule: Q01DX001 (ip), vehicle: saline with Tween-80) was 99 % of control.
Take `CCOC(=O)c1c[nH]c2ccc(N(CCCl)CCCl)cc12`: the T/C by setting is: (dose: 0.29 mg/kg/injection, schedule: Q01DX009 (ip), vehicle: saline with Tween-80) 101 % of control; (dose: 0.44 mg/kg/injection, schedule: Q01DX009 (ip), vehicle: saline with Tween-80) 101 % of control; (dose: 0.88 mg/kg/injection, schedule: Q01DX009 (ip), vehicle: saline with Tween-80) 152 % of control; (dose: 0.88 mg/kg/injection, schedule: Q04DX003 (ip), vehicle: saline with Tween-80) 118 % of control; (dose: 1.32 mg/kg/injection, schedule: Q04DX003 (ip), vehicle: saline with Tween-80) 122 % of control; (dose: 1.33 mg/kg/injection, schedule: Q01DX009 (ip), vehicle: saline with Tween-80) 158 % of control. Moreover, the T/C was 177 % of control (dose: 2.0 mg/kg/injection, schedule: Q01DX009 (ip), vehicle: saline with Tween-80); 164 % of control (dose: 2.66 mg/kg/injection, schedule: Q01DX009 (ip), vehicle: saline with Tween-80); 186 % of control (dose: 3.0 mg/kg/injection, schedule: Q01DX009 (ip), vehicle: saline with Tween-80); 176 % of control (dose: 4.0 mg/kg/injection, schedule: Q01DX009 (ip), vehicle: saline with Tween-80); 158 % of control (dose: 5.0 mg/kg/injection, schedule: Q04DX003 (ip), vehicle: saline with Tween-80); 191 % of control (dose: 6.0 mg/kg/injection, schedule: Q01DX009 (ip), vehicle: saline with Tween-80). In addition, the T/C reads like this: (dose: 7.5 mg/kg/injection, schedule: Q04DX003 (ip), vehicle: saline with Tween-80) 166 % of control; (dose: 9.0 mg/kg/injection, schedule: Q01DX009 (ip), vehicle: saline with Tween-80) 252 % of control; under setting [3], 190 % of control; under setting [4], 177 % of control; (dose: 50.0 mg/kg/injection, schedule: Q04DX003 (ip), vehicle: saline with Tween-80) 218 % of control.
For `CC1=[N+](C)C(C)(C)CC(C)O1` (configuration not stated), the T/C reads like this: (dose: 4.5 mg/kg/injection, schedule: Q01DX009 (ip), vehicle: saline) 100 % of control; under setting [1], 100 % of control; (dose: 7.0 mg/kg/injection, schedule: Q01DX009 (ip), vehicle: saline) 108 % of control; (dose: 11.0 mg/kg/injection, schedule: Q01DX009 (ip), vehicle: saline) 100 % of control; under setting [2], 95 % of control; (dose: 16.5 mg/kg/injection, schedule: Q01DX009 (ip), vehicle: saline) 103 % of control and 104 % of control. Moreover, the T/C is 92 % of control and 109 % of control (dose: 37.5 mg/kg/injection, schedule: Q01DX009 (ip), vehicle: saline); 90 % of control (dose: 200.0 mg/kg/injection, schedule: Q01DX009 (ip), vehicle: saline).
As for `CN(C)[C@@H]1C(=O)C(C(=O)NCNCCCC(=O)O)=C(O)[C@@]2(O)C(=O)C3=C(O)c4c(O)cccc4[C@@](C)(O)[C@H]3C[C@@H]12`, the T/C is 95 % of control under setting [5]; 104 % of control under setting [6]; 104 % of control (dose: 400.0 mg/kg/injection, schedule: Q01DX009 (ip), vehicle: saline with Tween-80).
